US10874108B2, “Anti-microbial compositions” (5D HEALTH PROTECTION GROUP LTD, priority 2016, dated 2020)
Like-named read-outs stand apart in the source and are kept apart here.

Assays:
[1] = Displacement of metals from EDTA complexes by physiological saline; assay type: physicochemical
Protocol: Adding saline to the suspension of Ag4(EDTA), the suspension quickly precipitated a solid (AgCl). The precipitate was filtered off, washed with deionized water 4 times; and then dried in a vacuum oven at 50° C. in a dark flask to avoid exposure to direct light.
The displacement experiment described above was repeated for compounds 1-4 to provide the percent of the displacement of silver, copper, zinc from the EDTA complexes by physiological saline.

S. aureus biofilms = test: CDC bioreactor biofilm LR/kill, EDTA compounds at 100 ppm silver; assay type: cell-based; details: 100 ppm of silver, exposed 24 hours
Protocol: (§1) Microbial cultures were exposed to compounds for 24 hours. Compounds were diluted according to 100 ppm of silver. Biofilms were formed using the CDC bioreactor. Samples were performed in triplicate.

P. aeruginosa biofilms = test: as above; assay type: cell-based; details: 100 ppm of silver, exposed 24 hours
Protocol: as §1

cells [2] = test: Direct cytotoxicity, Neutral Red Uptake assay
[3] = tested on: P. aeruginosa 24-hour CDC biofilms; test: Colonies after exposure of 24-hour CDC biofilms to EDTA compounds; assay type: cell-based
cells [4] = test: Indirect cytotoxicity, agar diffusion method
[5] = tested on: S. aureus 24-hour CDC biofilms; test: Colonies after exposure of 24-hour CDC biofilms to EDTA compounds; assay type: cell-based
cells [6] = tested on: cells
cells [7] = tested on: cells; remark: listed apart in the source

## O=C([O-])CN(CCN(CC(=O)[O-])CC(=O)[O-])CC(=O)[O-].[Ag+].[Ag+].[Cu+2] [Compound 2, Ag2CuEDTA]
[1]
  Displacement (%) Copper: 41.37 ± 6.92%
  Displacement (%) Silver: 77.99 ± 3.90%
S. aureus biofilms
  Kill %: 99.99%
  LR: 4.0 ± 0.20
P. aeruginosa biofilms
  Kill %: 99.95%
  LR: 3.31 ± 0.01
Cells [2]; 25 ppm
  Interpretation: Non cytotoxic (if the percentage viability is less than 70% of the untreated control, then the substance is considered cytotoxic)
  Percentage of Control/Percentage Viability (%): 72.21 ± 3.74%
Cells [2]; 50 ppm
  Interpretation: Non cytotoxic (if the percentage viability is less than 70% of the untreated control, then the substance is considered cytotoxic)
  Percentage of Control/Percentage Viability (%): 72.01 ± 7.41%
Cells [2]; 100 ppm
  Interpretation: Non cytotoxic (if the percentage viability is less than 70% of the untreated control, then the substance is considered cytotoxic)
  Percentage of Control/Percentage Viability (%): 72.09 ± 17.57%
[3]
  Number of colonies detected: 0 Cfu/ml
Cells [4]; 25 ppm
  Lysis Index: 1
  Zone Index: 2
Cells [4]; 50 ppm
  Lysis Index: 1
  Zone Index: 2
Cells [4]; 100 ppm
  Lysis Index: 1
  Zone Index: 2
[5]
  Number of colonies detected: 0 Cfu/ml

## O=C([O-])CN(CCN(CC(=O)[O-])CC(=O)[O-])CC(=O)[O-].[Ag+].[Na+].[Zn+2] [Compound 3, AgZnNaEDTA]
[1]
  Displacement (%) Silver: 82.32 ± 5.63%
  Displacement (%) Zinc: 47.33 ± 13.29 %
S. aureus biofilms
  Kill %: 100%
P. aeruginosa biofilms
  Kill %: 99.97%
  LR: 3.51 ± 0.04
P. aeruginosa biofilms; listed as Ag/Zn/NaEDTA
  LR: 3.5
Cells [6]
  percentage viability: 46.46-63.08%
[3]
  Number of colonies detected: 0 Cfu/ml
Cells [4]; 25 ppm
  Lysis Index: 1
  Zone Index: 2
Cells [4]; 50 ppm
  Lysis Index: 1
  Zone Index: 2
Cells [4]; 100 ppm
  Lysis Index: 1
  Zone Index: 3
[5]
  Number of colonies detected: 0 Cfu/ml

## Oc1ccccc1 [Phenol]
Cells [7]
  Lysis Index: 3
  Zone Index: 5
